Source: patent US8383629B2, “Inhibitors of 11β-hydroxysteroid dehydrogenase type 1” (Vitae Pharmaceuticals, Inc., priority 2008, dated 2013)
pIC50: −log10 of the molar value.

Molecular target: T1, human 11β-HSD1 (Homo sapiens, UniProt P28845)
T1 construct: expressed in transfected cells; host or cells: CHO cells (microsomes)
Assay: Inhibition of microsomal preparation of 11β-HSD1 (SPA, Biological Test Example 1)
Format: biochemical
Details: for inhibition at 0.111 µM: 111 nM; for pIC50: microsomes from CHO cells overexpressing human 11β-HSD1, read-out: IC50 Range
In short: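 Microsomes from CHO cells overexpressing human 11β-HSD1 reduced [3H]cortisone (160 nM in substrate solution, with 2 mM NADPH, HEPES pH 7.4) for 90 min at rt after a 10 min compound preincubation. Compounds were run as 8-point half-log DMSO dilutions from 0.1 mM. 18β-glycyrrhetinic acid stopped the reaction, and anti-cortisol antibody SPA beads read [3H]cortisol.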

T1 sequence (P28845 whole entry): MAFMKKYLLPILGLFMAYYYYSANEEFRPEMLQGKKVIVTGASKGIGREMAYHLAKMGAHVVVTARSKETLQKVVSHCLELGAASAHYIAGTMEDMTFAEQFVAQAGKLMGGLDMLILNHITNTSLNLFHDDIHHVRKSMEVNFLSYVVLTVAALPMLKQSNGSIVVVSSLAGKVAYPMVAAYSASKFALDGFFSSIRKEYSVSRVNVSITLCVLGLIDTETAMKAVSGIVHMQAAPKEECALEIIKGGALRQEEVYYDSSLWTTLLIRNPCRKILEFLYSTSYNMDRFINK

inhibition at 0.1 µM (100 nM) [%] | inhibition at 0.111 µM [%] | pIC50 | SMILES
96.6 | 95.4 | > 7.00 | O=C(O)CC1CC2(CCN(C(=O)CCc3ccccc3C(F)(F)F)CC2)c2c(Cl)cccc21 (stereo not shown) [EXAMPLE 73, 2-(7-chloro-1′-(3-(2-(trifluoromethyl)phenyl)propanoyl)-2,3-dihydrospiro[indene-1,4′-piperidine]-3-yl)acetic acid]
 | 89.5 | > 7.00 | O=C(O)CC1CC2(CCN(C(=O)CCc3ccccc3Cl)CC2)c2c(Cl)cccc21 (stereo not shown) [EXAMPLE 74, 2-(7-chloro-1′-(3-(2-chlorophenyl)propanoyl)-2,3-dihydrospiro[indene-1,4′-piperidine]-3-yl)acetic acid]
 | 52.2 | > 7.00 | O=C(O)CC1CC2(CCN(C(=O)CCc3ccc(Cl)cc3Cl)CC2)c2c(Cl)cccc21 (stereo not shown) [EXAMPLE 75, 2-(7-chloro-1′-(3-(2,4-dichlorophenyl)propanoyl)-2,3-dihydrospiro[indene-1,4′-piperidine]-3-yl)acetic acid]
 | 60 | > 7.00 | COC(=O)c1ccc2c(c1)C1(CCN(C(=O)CCc3ccccc3C(F)(F)F)CC1)C(=O)N2C [EXAMPLE 76, 1-methyl-2-oxo-1′-(3-(2-(trifluoromethyl)phenyl)propanoyl)spiro[indoline-3,4′-piperidine]-5-carboxylate]
 | 26.3 | 6.00 to 7.00 | CN1C(=O)C2(CCN(C(=O)CCc3ccccc3C(F)(F)F)CC2)c2cc(C(N)=O)ccc21 [EXAMPLE 77, 1-methyl-2-oxo-1′-(3-(2-(trifluoromethyl)phenyl)propanoyl)spiro[indoline-3,4′-piperidine]-5-carboxamide]
 | 52.4 | > 7.00 | CCN1C(=O)C2(CCN(C(=O)CCc3ccccc3C(F)(F)F)CC2)c2cc(C(=O)OC)ccc21 [EXAMPLE 78, Methyl 1-ethyl-2-oxo-1′-(3-(2-(trifluoromethyl)phenyl)propanoyl)spiro[indoline-3,4′-piperidine]-5-carboxylate]
 | 51.4 | 6.00 to 7.00 | CN1C(=O)C2(CCN(C(=O)CCc3ccccc3C(F)(F)F)CC2)c2cc(C#N)ccc21 [EXAMPLE 79, 1-methyl-2-oxo-1′-(3-(2-(trifluoromethyl)phenyl)propanoyl)spiro[indoline-3,4′-piperidine]-5-carbonitrile]
 | 95.1 | > 7.00 | NC(=O)CC1CC2(CCN(C(=O)CCc3ccccc3C(F)(F)F)CC2)c2c(Cl)cccc21 (stereo not shown) [EXAMPLE 80, 2-(7-chloro-1′-(3-(2-(trifluoromethyl)phenyl)propanoyl)-2,3-dihydrospiro[indene-1,4′-piperidine]-3-yl)acetamide]
 | 59.2 | > 7.00 | CCOC(=O)CC1CC2(CCN(C(=O)N(CC)Cc3c(F)cccc3Cl)CC2)c2c(Br)cccc21 (stereo not shown) [EXAMPLE 81]
 | 28.6 | 6.00 to 7.00 | CCOC(=O)CC1CC2(CCN(C(=O)NCc3ccccc3OCC)CC2)c2c(Br)cccc21 (stereo not shown) [EXAMPLE 82, Ethyl 2-(7-bromo-1′-(2-ethoxybenzylcarbamoyl)-2,3-dihydrospiro[indene-1,4′-piperidine]-3-yl)acetate]
 | 10.9 | 6.00 to 7.00 | O=C(O)CC1CC2(CCN(C(=O)NCc3cc(F)c(F)cc3F)CC2)c2c(Br)cccc21 (stereo not shown) [EXAMPLE 83, 2-(7-bromo-1′-(2,4,5-trifluorobenzylcarbamoyl)-2,3-dihydrospiro[indene-1,4′-piperidine]-3-yl)acetic acid]
 | 42.6 | 6.00 to 7.00 | CCOc1ccccc1CNC(=O)N1CCC2(CC1)CC(CC(=O)O)c1cccc(Br)c12 (stereo not shown) [EXAMPLE 84, 2-(7-bromo-1′-(2-ethoxybenzylcarbamoyl)-2,3-dihydrospiro[indene-1,4′-piperidine]-3-yl)acetic acid]
 | 19.4 | 6.00 to 7.00 | O=C(NCc1ccccc1-c1ccccc1)N1CCC2(CC1)OCc1ccccc12 [EXAMPLE 85, N-(biphenyl-2-ylmethyl)-3H-spiro[isobenzofuran-1,4′-piperidine]-1′-carboxamide]
 | 58.7 | > 7.00 | CCOC(=O)CC1CC2(CCN(C(=O)NCc3ccccc3C)CC2)c2c(Br)cccc21 (stereo not shown) [EXAMPLE 86, Ethyl 2-(7-bromo-1′(2-methylbenzylcarbamoyl)-2,3-dihydrospiro[indene-1,4′-piperidine]-3-yl)acetate]
 | 57.2 | > 7.00 | Cc1ccccc1CNC(=O)N1CCC2(CC1)CC(CC(=O)O)c1cccc(Br)c12 (stereo not shown) [EXAMPLE 87, 2-(7-bromo-1′-(2-methylbenzylcarbamoyl)-2,3-dihydrospiro[indene-1,4′-piperidine]-3-yl)acetic acid]
 | 66.2 | > 7.00 | Cc1ccccc1CNC(=O)N1CCC2(CC1)CC(CC(=O)N1CCN(C(=O)OC(C)(C)C)CC1)c1cccc(Br)c12 (stereo not shown) [EXAMPLE 88, tert-butyl 4-(2-(7-bromo-1′-(2-methylbenzylcarbamoyl)-2,3-dihydrospiro[indene-1,4′-piperidine]-3-yl)acetyl)piperazine-1-carboxylate]
 | 61.2 | > 7.00 | CCOC(=O)CC1CC2(CCN(C(=O)NCc3c(C)cccc3Cl)CC2)c2c(Br)cccc21 (stereo not shown) [EXAMPLE 89, Ethyl 2-(7-bromo-1′-(2-chloro-6-methylbenzylcarbamoyl)-2,3-dihydrospiro[indene-1,4′-piperidine]-3-yl)acetate]
 | 52.4 | 6.00 to 7.00 | Cc1ccccc1CNC(=O)N1CCC2(CC1)CC(CC(=O)N1CCNCC1)c1cccc(Br)c12 (stereo not shown) [EXAMPLE 90, 7-bromo-N-(2-methylbenzyl)-3-(2-oxo-2-(piperazin-1-yl)ethyl)-2,3-dihydrospiro[indene-1,4′-piperidine]-1′-carboxamide]
 | 64.1 | > 7.00 | Cc1cccc(Cl)c1CNC(=O)N1CCC2(CC1)CC(CC(=O)O)c1cccc(Br)c12 (stereo not shown) [EXAMPLE 91, 2-(7-bromo-1′-(2-chloro-6-methylbenzylcarbamoyl)-2,3-dihydrospiro[indene-1,4′-piperidine]-3-yl)acetic acid]
 | 70.5 | > 7.00 | CCOC(=O)CC1CC2(CCN(C(=O)NCc3ccccc3C(F)(F)F)CC2)c2c(Br)cccc21 (stereo not shown) [EXAMPLE 92, Ethyl 2-(7-bromo-1′-(2-(trifluoromethyl)benzylcarbamoyl)-2,3-dihydrospiro[indene-1,4′-piperidine]-3-yl)acetate]
 | 18.5 | 6.00 to 7.00 | CCOC(=O)CC1CC2(CCN(C(=O)NCc3ccccc3S(C)(=O)=O)CC2)c2c(Br)cccc21 (stereo not shown) [EXAMPLE 93, Ethyl 2-(7-bromo-1′-(2-(methylsulfonyl)benzylcarbamoyl)-2,3-dihydrospiro[indene-1,4′-piperidine]-3-yl)acetate]
 | 75.7 | > 7.00 | O=C(O)CC1CC2(CCN(C(=O)NCc3ccccc3C(F)(F)F)CC2)c2c(Br)cccc21 (stereo not shown) [EXAMPLE 94, 2-(7-bromo-1′-(2-(trifluoromethyl)benzylcarbamoyl)-2,3-dihydrospiro[indene-1,4′-piperidine]-3-yl)acetic acid]
 | 19.9 | 6.00 to 7.00 | CCOC(=O)CC1CC2(CCN(C(=O)NCc3ccccc3OC(C)C)CC2)c2c(Br)cccc21 (stereo not shown) [EXAMPLE 95, Ethyl 2-(7-bromo-1′-(2-isopropoxybenzylcarbamoyl)-2,3-dihydrospiro[indene-1,4′-piperidine]-3-yl)acetate]
 | 48.9 | 6.00 to 7.00 | O=C(O)CC1CC2(CCN(C(=O)NCc3ccccc3N3CCCC3)CC2)c2c(Br)cccc21 (stereo not shown) [EXAMPLE 96, 2-(7-bromo-1′-(2-(pyrrolidin-1-yl)benzylcarbamoyl)-2,3-dihydrospiro[indene-1,4′-piperidine]-3-yl)acetic acid]
 | 5.6 | 6.00 to 7.00 | CS(=O)(=O)c1ccccc1CNC(=O)N1CCC2(CC1)CC(CC(=O)O)c1cccc(Br)c12 (stereo not shown) [EXAMPLE 97, 2-(7-bromo-1′-(2-(methylsulfonyl)benzylcarbamoyl)-2,3-dihydrospiro[indene-1,4′-piperidine]-3-yl)acetic acid]
 | 48.2 | > 7.00 | CC(C)Oc1ccccc1CNC(=O)N1CCC2(CC1)CC(CC(=O)O)c1cccc(Br)c12 (stereo not shown) [EXAMPLE 98, 2-(7-bromo-1′-(2-isopropoxybenzylcarbamoyl)-2,3-dihydrospiro[indene-1,4′-piperidine]-3-yl)acetic acid]
 | 75.6 | > 7.00 | O=C1CC2(CCN(C(=O)NCc3ccccc3OC(F)(F)F)CC2)c2c(Br)cccc21 [EXAMPLE 99, 7-bromo-3-oxo-N-(2-(trifluoromethoxy)benzyl)-2,3-dihydrospiro[indene-1,4′-piperidine]-1′-carboxamide]
 | 46.8 | 6.00 to 7.00 | CN1C(=O)c2cccc(Cl)c2C12CCN(C(=O)NCc1ccccc1C(F)(F)F)CC2 [EXAMPLE 100, 7-chloro-2-methyl-3-oxo-N-(2-(trifluoromethyl)benzyl)spiro[isoindoline-1,4′-piperidine]-1′-carboxamide]
 | 42.6 | 6.00 to 7.00 | CCOC(=O)CC1CC2(CCN(C(=O)N(C)Cc3ccccc3C(F)(F)F)CC2)c2c(Br)cccc21 (stereo not shown) [EXAMPLE 101, Ethyl 2-(7-bromo-1′-(methyl(2-(trifluoromethyl)benzyl)carbamoyl)-2,3-dihydrospiro[indene-1,4′-piperidine]-3-yl)acetate]
 | 64.4 | > 7.00 | CN(Cc1ccccc1C(F)(F)F)C(=O)N1CCC2(CC1)CC(CC(=O)O)c1cccc(Br)c12 (stereo not shown) [EXAMPLE 102, 2-(7-bromo-1′-(methyl(2-(trifluoromethyl)benzyl)carbamoyl)-2,3-dihydrospiro[indene-1,4′-piperidine]-3-yl)acetic acid]
